1 compound from patent US11453667B2, “Pyridone-pyrimidine derivative acting as KRASG12C mutein inhibitor” (MEDSHINE DISCOVERY INC., priority 2018, dated 2022) can be followed below.

The nature of series [1]: Rat pharmacokinetic evaluation experiment. It is filed as in vivo. As to conditions: plasma, male SD rats; for AUC: read-out: AUC (exposure). An excerpt:
To determine the drug concentrations in plasma at different times after intravenous and intragastric administration of the test compounds to the rats by using the LC/MS/MS method and using male SD rats as the test animals; To study the pharmacokinetic behaviors of the test compounds in rats and to evaluate the pharmacokinetic characteristics thereof.
Experiment scheme: 10 healthy adult male SD rats were used as experimental animals and divided into 4 groups according to the principle of similar body weight, with 2 in each group of the group IV (two groups) and 3 in each group of the group PO (two groups). The animals were purchased from Beijing Vital River Laboratory Animal Technology Co., Ltd.
Group IV: an appropriate amount of samples were weighed; an appropriate amount of DMSO, PEG400 and water were added successively thereto according to the volume ratio of 10:60:30; and stirring was performed under sonication to reach a clear state of 1.5 mg/mL.
Group PO: an appropriate amount of samples were weighed; an appropriate amount of DMSO, PEG400 and water were added successively thereto according to the volume ratio of 10:60:30; and stirring was performed under sonication to reach a clear state of 1.0 mg/mL.
After fasting overnight, each rat in the group IV was administered intravenously with a volume of 2 mL/kg and a dose of 3 mg/kg; each rat in the group PO was administered intragastrically with a volume of 10 mL/kg and a dose of 10 mg/kg.
After each of the male SD rats in the group IV was administrated with the test compounds, 200 ul of blood samples were collected at 0.0833, 0.25, 0.5, 1, 2, 4, 6, 8 and 24 hours, and were placed in a commercial anticoagulation tube pre-loaded with EDTA-K2. After each rat in the group PO was administrated with the test compounds, 200 ul of blood samples were collected at 0.25, 0.5, 1, 2, 4, 6, 8 and 24 hours respectively, and were placed in a commercial anticoagulation tube pre-loaded with EDTA-K2. The test tube was centrifuged for 15 minutes to separate the plasma and stored at −60° C. 2 hours after administration, the animals can be fed. The content of the test compounds in plasma was determined by the LC/MS/MS method after intravenous and intragastric administration to the rats. The linear range of the method was from 2.00 to 6000 nM; plasma samples were analyzed after treatment of precipitating proteins by acetonitrile.
Note: Cl: clearance rate; Vd: volume of distribution; AUC: exposure; T1/2: half-life; Cmax: maximum compound concentration after oral administration; Tmax: time to reach Cmax; F: bioavailability.

For series [2], the system named is NCI-H358 human non-small cell lung cancer cells with KRAS G12C mutation. In words: Cell experiment: anti-proliferative activity, CellTiter-Glo, NCI-H358. Type of series: cell-based. As to conditions: Homo sapiens, NCI-H358, 120 h, 5 days culture. How it is done:
(§1) This experiment is intended to verify that the compounds of the present invention have an inhibitory effect on the proliferation of NCI-H358 human non-small cell lung cancer cells with KRAS G12C mutation, MIA PaCa2 human pancreatic cancer cells with KRAS G12C mutation and wild-type A375 human malignant melanoma cells.
(§2) 40 μl of phosphate buffer was added to the peripheral wells of three 384-well microplates respectively, and 40 μl of cell suspension to be tested was added to the other wells of each plate respectively (plate 1: NCI-H358 cell suspension containing 500 NCI-H358 cells; plate 2: MIAPaCa2 cell suspension containing 300 MIAPaCa2 cells; plate 3: A375 cell suspension containing 300 A375 cells). The three cell plates were then placed in a carbon dioxide incubator and incubated overnight. Echo was used to perform a 3-fold gradient dilution of the compounds to be tested, and each compound was diluted with 10 concentration gradients (diluted from 50 μM to 0.003 μM), 100 nl of which was respectively added to the corresponding wells of the cell plates; after dosing, 40 μL of phosphate buffer was added to each well of rows A and P and columns 1 and 24, and then the cell plates were put back to the carbon dioxide incubator for culturing for 5 days. 20 μl of Promega CellTiter-Glo reagent per well was added to the cell plates, which was shaken at room temperature for 10 minutes in the dark to stabilize the luminescence signal. A PerkinElmer Envision multi-label analyzer was used for reading.
(§3) Data analysis: IC50 results were analyzed by GraphPad Prism 5.0 software […].
On the technique in general: ATP-based viability assays read luminescence as a measure of living cells.

The test system of series [3] is wild-type A375 human malignant melanoma cells. In words: Cell experiment: anti-proliferative activity, CellTiter-Glo, A375. Type of series: cell-based. As to conditions: Homo sapiens, A-375, 120 h, 5 days culture. How it is done: as §1, §2, §3
Series [4] deals with human non-small cell lung cancer NCI-H358. Put plainly: In vivo drug efficacy test (2): subcutaneous xenograft tumor model. On the set-up: species or system BALB/c nude mice. As to conditions: 100 mg/kg (0-6 days) + 50 mg/kg (7-20 days). The protocol: To evaluate the in vivo efficacy of the test compounds in a subcutaneous xenograft tumor model of human non-small cell lung cancer NCI-H358.
BALB/c nude mice, female, 6-8 weeks old, weighing 18-21 grams. A total of 100 were required. They were provided by Shanghai Lingchang Experimental Animal Co., Ltd ( ? ? ). NCI-H358 tumor cells were resuspended in PBS to prepare 0.1 mL (5×10^6) of cell suspension, which was inoculated subcutaneously on the right back of each mouse (5×10^6/mouse) to wait for tumor growth. When the average tumor volume reached about 150-200 mm^3, randomized grouping and administration were performed, and the administration dose was shown in Table 6. The diameter of the tumor was measured with vernier calipers twice a week. The formula for calculating the tumor volume is: V=0.5a×b^2, wherein a and b represent the long and short diameters of the tumor, respectively. The tumor suppressive effect of the compounds was evaluated by TGI (%). TGI (%) reflects the tumor growth inhibition rate. Calculation of TGI (%): TGI (%)=[(1−(average tumor volume at the end of administration in a treatment group−average tumor volume at the beginning of administration in the treatment group))/(average tumor volume at the end of treatment in the solvent control group−average tumor volume at the beginning of treatment in the solvent control group)]×100%.

Where two headings read alike, the source gives them in different places.

On to `C=CC(=O)N1CCN(c2ncnc3c(=O)n(-c4c(N)c(Cl)cc(Cl)c4F)c(C(F)(F)F)cc23)CC1` [Example 49], for which the AUC in series [1] (IV 3 mg/kg) was 4.62 µM·h. For the same compound, the clearance in series [1] (IV 3 mg/kg, read-out: Cl (clearance rate)) worked out at 20.6 mL/min/kg. Moreover, the half-life in series [1] (IV 3 mg/kg, read-out: T1/2 (half-life) (converted)) was 0.94 h. In addition, the Vd in series [1] (IV 3 mg/kg, read-out: Vd (volume of distribution)) is 2.15 L/kg. In addition, in series [1] (PO 10 mg/kg), the Cmax is 2110 nM, the Tmax came to 1.67 h and the AUC was found to be 7.74 µM·h. The bioavailability in series [1] (PO 10 mg/kg, read-out: F (bioavailability)) stood at 52%. Moreover, in series [2], it took 0.05 µM to reach half-maximal inhibition (IC50). The compound also displayed an IC50 in series [3] of 7.32 µM. Moreover, the “Tumor volume (day 20)” value in series [4] is given as 30 mm^3. The TGI in series [4] (day 20) was 125.66%.

As usually defined, the AUC is the area under the concentration-time curve, a measure of exposure. The clearance is the rate of elimination divided by the concentration. As a reminder, the Vd is the apparent volume that relates the amount in the body to the concentration in plasma or blood. As a reminder, the Cmax is the highest concentration seen after dosing. As usually defined, the Tmax is the time from dosing to the highest level. As usually defined, the bioavailability is the share of a dose that reaches the circulation, judged against a reference dose that is usually intravenous. By IC50 is commonly meant the midpoint of a concentration-inhibition curve. Low values mean inhibition by little substance, high ones a need for much substance.
